Assay results taken from US20230277464A1, “TABLET DOSAGE FORMS FOR LIPID-BASED DRUG DELIVERY SYSTEMS” (ABITEC Corporation, priority 2022, published 2023).

Experiment: Visual dissolution of ibuprofen in SEDDS pre-concentrate
Assay type: physicochemical
Protocol: The medium chain fatty acid esters and oil were weighed into a 2000 mL glass beaker. Subsequently, a magnetic stirrer was added to the beaker. The medium chain fatty acid esters and oil were blended to uniformity for 5 minutes with the magnetic stirrer set at 5. […] […] The pre-concentrate was observed 24 hours later to ensure that the ibuprofen was still dissolved.

SMILES: CC(C)Cc1ccc(C(C)C(=O)O)cc1 (centres unmarked) [Ibuprofen, ibuprofen]
- Time ibuprofen remained dissolved in the pre-concentrate (room temperature): at least 24 hours
- Ibuprofen dissolved in the pre-concentrate components (with heating): about 15.0%
